Tests used:
[1] = test system: Female Yucatan Micro-Swine; test: Conscious Pig Model (IUP, MAP and HR during iv infusion); format: in vivo
Protocol: In general, IUP is the intraurethral pressure and is measured as the 2 minute mean from the first peak of the urethral response (FIG. 1). MAP is the mean arterial blood pressure and is measured as the average blood pressure during the 2 minute section where IUP is measured. The durability is the slope of the IUP response in mmHg/min and is calculated immediately after the 2 minute IUP response for 5 minutes (2-7 minutes post the first peak) for the top 3 doses.
Sling Training: Female Yucatan Micro-Swine were trained to stay in a sling for up to 4 hours. Swine were exposed to progressively longer sling durations per IACUC sling-training guideline.
Surgical Instrumentation: Female Yucatan Micro-swine were instrumented with a telemetry device with both pressure and ECG monitoring capabilities (Data Sciences International St Paul Minn.). In addition, a Bardport low profile titanium VAP was placed subcutanteously for blood sampling. All devices were implanted by the surgical veterinarian at Roche Palo Alto. Briefly, the telemetry probe body was placed subcutaneously in the cervical region. The intra-arterial pressure catheter was advanced via the superficial cervical artery into the subclavian artery for blood pressure measurement. The ECG leads were placed intra-muscularly: one in the intercostal muscle between the T8-T10 regions on the left side, and the other in the intercostal muscles between the T1-T3 regions on the right side. The VAP was placed subcutaneously in the neck region, with the catheter advanced into the jugular vein. Swine were allowed to fully recover from the surgery (typically 10 days). […]
Experiment: After the swine was fully awake and stable (usually approximately 1 hour post wake up), baseline blood pressure, IUP, and heart rate parameters were determined. […]
Data Generating and Analysis Systems: Cardiovascular readings were generated by the TL11M3-D70-PCP (Data Sciences International, St. Paul, Minn.) telemetry device and associated hardware. […] IUP was monitored by a solid state catheter connected to a TA6000 Polygraph (Data Sciences International, St. Paul, Minn.). […]

alpha-1A adrenoceptors = target: T1, alpha-1A adrenoceptors (Homo sapiens, UniProt P35348); test: alpha-1A adrenoceptor partial agonist activity (intrinsic activity and pEC50); format: cell-based
T1 sequence (P35348 1-466): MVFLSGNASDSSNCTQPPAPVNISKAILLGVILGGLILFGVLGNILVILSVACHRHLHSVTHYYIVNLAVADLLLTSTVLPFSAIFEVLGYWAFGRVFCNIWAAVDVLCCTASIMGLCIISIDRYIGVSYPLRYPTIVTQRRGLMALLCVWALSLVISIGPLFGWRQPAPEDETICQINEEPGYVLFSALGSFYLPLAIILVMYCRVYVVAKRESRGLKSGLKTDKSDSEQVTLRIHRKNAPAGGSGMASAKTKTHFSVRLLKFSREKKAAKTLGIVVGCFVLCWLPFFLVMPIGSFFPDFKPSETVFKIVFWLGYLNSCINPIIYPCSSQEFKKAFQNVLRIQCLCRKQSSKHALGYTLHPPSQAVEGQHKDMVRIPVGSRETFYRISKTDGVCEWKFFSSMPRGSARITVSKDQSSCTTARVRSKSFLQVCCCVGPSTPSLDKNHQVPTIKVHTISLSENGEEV

`CS(=O)(=O)Nc1cc(F)c(CC2=NCCN2)c(Br)c1Cl` [Formula I, N-[3-Bromo-2-chloro-4-(4,5-dihydro-1H-imidazol-2-ylmethyl)-5-fluoro-phenyl]-methanesulfonamide] was tested, and the “maximum arterial blood pressure effect” value [1] was “low”, the “selectivity for enhancement of intraurethral pressure (IUP) over blood pressure (MAP)” value [1] was “selectivity for enhancement of intraurethral pressure (IUP) over blood pressure (MAP)” and the “durability of IUP response over time” value ([1]; compared to analogue compound lacking the 3-bromo and 5-fluoro substituents (FIG. 1b vs FIG. 1c)) was “unexpectedly increased durability of IUP response over time”. The “intrinsic activity, or efficacy, as a partial agonist” value (alpha-1A adrenoceptors; ideally between 0.35 to 0.60) was 0.45 and the EC50 (alpha-1A adrenoceptors; read-out: affinity, or pEC50 value (converted)) was 316 nM.
